{
  "source": "paper PMC5368910",
  "about": "(BMC Pharmacology & Toxicology, 2017)",
  "key": {"C. difficile": {"system": "C. difficile", "design": "method as in PMID 22183166, PMID 22391542", "conditions": "cited from earlier work"}, "[1]": {"system": "initial and relapsing hamster CDAD", "design": "method as in PMID 22802252", "conditions": "given orally; potency similar to vancomycin; cited from earlier work"}, "clinical [2]": {"test": "clinical", "conditions": "both, human, plasma, po", "experimental": "Randomization was assigned by blinded study personnel and stratified by gender to achieve an equal number of male and female subjects in each cohort. Subjects aged 18–49 years and 50–75 years were equally distributed in each dosing cohort.\nAny subject receiving at least one full dose of the study drug was included in the PK analysis population. PK analysis during the SAD study was conducted on serial plasma samples collected predose and at 30 min, 1, 2, 4, 6, 8, 12, 24, 48, and 72 h after dosing, and analyzed using a validated liquid chromatography-tandem mass spectrometry (LC/MS/MS) method, with a lower limit of quantification (LLOQ) of 1 ng/mL. […] The samples were analyzed using an API 5000 triple quadrupole mass spectrometer (Applied Biosystems/ScieEx, Concord, ON, Canada) using electrospray ionization in positive ion mode. Analyst^TM software (version 1.4.2., Applied Biosystems, Foster City, CA, USA) was used for data acquisition. In total, 8 calibration solutions with a range of 1.00 ng/mL to 1000 ng/mL were used as internal standards in addition to a blank. Inter-assay bias was determined to be –2.6 to 2.5% with inter-assay precision of 3.9 to 9.4%.\n(§1) Plasma PK parameters were calculated using standard noncompartmental methods in a validated version of WinNonlin (version 5.2, Pharsight, Mountain View, CA, USA). All concentrations that were below the LLOQ prior to the first detectable concentration were assigned a value of 0. All concentrations that were below the LLOQ after the first quantifiable concentration were designated as missing and replaced with a period. Actual sample collection times were used in the analysis of the concentration versus time profiles for individual subjects. Integration of plasma concentrations versus time was conducted using the linear-up, log-down function in WinNonlin. The following parameters were determined: maximum plasma concentration (Cmax), time of Cmax (Tmax), area under the concentration-time curve (AUC) from 0 to last measurable plasma concentration (AUC0-t), AUC from 0 to infinity (AUC0-∞), percent of dose excreted in the urine, and terminal exponential half-life (t½)."}, "clinical [3]": {"test": "clinical", "conditions": "both, human, plasma, po, MAD, median (range); for AUC(0-t): AUC0–t; for Tmax: LLOQ 1 ng/mL", "experimental": "Subjects were dosed BID, once in the morning and once in the evening, for 14 consecutive days, with at least 8 ounces of water and approximately 1 h after breakfast and 1 h after dinner.\nDuring the MAD study, serial plasma samples for PK analysis were collected predose and at 30 min, 3, 6, and 9 h after the morning dose on days 1 and 14, and before the morning dose on days 4, 7, 10, and 12 (trough levels). […] Samples were analyzed using the same bioanalytical LC/MS/MS method as in the SAD study (LLOQ of 1 ng/mL).\nas §1"}, "[4]": {"conditions": "rats; ref Yin N et al., ICAAC 2010, unpublished data; cited from earlier work"}, "[5]": {"conditions": "dogs; ref Yin N et al., ICAAC 2010, unpublished data; cited from earlier work"}, "[6]": {"conditions": "MAD, subjects who received surotomycin (n = 24)"}, "[7]": {"conditions": "250 mg, 250 mg BID oral, day 1, LC/MS/MS, cohort n = 8"}, "[8]": {"conditions": "1000 mg, 1000 mg BID oral, day 1, LC/MS/MS, cohort n = 8"}},
  "note": "Where two headings read alike, the source gives them in different places.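 Wherever Gastrointestinal disorders (TEAE) is given: human subjects dosed twice daily for 14 days, safety tracked through day 21 follow-up via reported adverse events, examinations, vital signs, ECG and laboratory tests.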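 Wherever General disorders and administration- site conditions (TEAE) is given: human subjects dosed twice daily for 14 days, safety tracked through day 21 follow-up via reported adverse events, examinations, vital signs, ECG and laboratory tests.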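 Wherever Headache (TEAE) is given: human subjects dosed twice daily for 14 days, safety tracked through day 21 follow-up via reported adverse events, examinations, vital signs, ECG and laboratory tests.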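 Wherever Infections and infestations (TEAE) is given: human subjects dosed twice daily for 14 days, safety tracked through day 21 follow-up via reported adverse events, examinations, vital signs, ECG and laboratory tests.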",
  "data": [
    {"molecule": "CCCCCc1ccc(/C(C)=C/C(=O)N[C@@H](Cc2c[nH]c3ccccc23)C(=O)N[C@H](CC(N)=O)C(=O)N[C@@H](CC(=O)O)C(=O)N[C@@H]2C(=O)NCC(=O)N[C@@H](CCCN)C(=O)N[C@@H](CC(=O)O)C(=O)N[C@H](C)C(=O)N[C@@H](CC(=O)O)C(=O)NCC(=O)N[C@H](CO)C(=O)N[C@@H]([C@H](C)CC(=O)O)C(=O)N[C@@H](CC(=O)c3ccccc3N)C(=O)O[C@@H]2C)cc1", "note": "[surotomycin]", "values": [
      {"measurement": "Gastrointestinal disorders (TEAE)", "setting": "MAD 1000 mg BID (n = 8)", "value": "2 (25.0) n (%)"},
      {"measurement": "General disorders and administration- site conditions (TEAE)", "setting": "MAD 1000 mg BID (n = 8)", "value": "2 (25.0) n (%)"},
      {"measurement": "Headache (TEAE)", "setting": "MAD 1000 mg BID (n = 8)", "value": "0 n (%)"},
      {"measurement": "Infections and infestations (TEAE)", "setting": "MAD 1000 mg BID (n = 8)", "value": "1 (12.5) n (%)"},
      {"measurement": "Musculoskeletal and connective tissue disorders (TEAE)", "setting": "MAD 1000 mg BID (n = 8)", "value": "0 n (%)"},
      {"measurement": "Nervous system disorders (TEAE)", "setting": "MAD 1000 mg BID (n = 8)", "value": "2 (25.0) n (%)"},
      {"measurement": "Oropharyngeal pain (TEAE)", "setting": "MAD 1000 mg BID (n = 8)", "value": "1 (12.5) n (%)"},
      {"measurement": "Pruritus (TEAE)", "setting": "MAD 1000 mg BID (n = 8)", "value": "1 (12.5) n (%)"},
      {"measurement": "Respiratory, thoracic, and mediastinal disorders (TEAE)", "setting": "MAD 1000 mg BID (n = 8)", "value": "2 (25.0) n (%)"},
      {"measurement": "Skin and subcutaneous tissue disorders (TEAE)", "setting": "MAD 1000 mg BID (n = 8)", "value": "1 (12.5) n (%)"},
      {"measurement": "discontinuation due to AEs", "setting": "MAD, 500 mg BID, transient moderate anxiety and mild dyspnea 2 h after the 5th dose", "value": "One subject"},
      {"measurement": "tolerability", "setting": "MAD, 250, 500, 1000 mg BID", "value": "well tolerated"},
      {"measurement": "severity of reported AEs", "setting": "MAD, 250, 500, 1000 mg BID for 14 days", "value": "mild to moderate"},
      {"measurement": "relation of reported AEs to study drug", "setting": "MAD, all reported AEs", "value": "unrelated to the study drug"},
      {"measurement": "headache", "setting": "MAD, of the 24 subjects who received surotomycin", "value": "2 (8.3%) n (%)"},
      {"measurement": "back pain", "setting": "[6]", "value": "2 (8.3%) n (%)"},
      {"measurement": "constipation", "setting": "[6]", "value": "2 (8.3%) n (%)"},
      {"measurement": "oropharyngeal pain", "setting": "[6]", "value": "2 (8.3%) n (%)"},
      {"measurement": "pruritus", "setting": "[6]", "value": "2 (8.3%) n (%)"},
      {"measurement": "in vitro potency relative to vancomycin", "setting": "C. difficile; against C. difficile, by MIC90", "value": "fourfold greater"},
      {"measurement": "minimum inhibitory concentration at which 90% of the isolates were inhibited [MIC90]", "setting": "C. difficile; in vitro, C. difficile isolates", "value": 0.5, "unit": "µg/mL"},
      {"measurement": "efficacy against initial and relapsing hamster CDAD", "setting": "[1]", "value": "highly effective"},
      {"measurement": "AUC(0-inf)", "setting": "clinical [2]; 500 mg", "value": 317, "unit": "ng·h/mL"},
      {"measurement": "AUC(0-t)", "setting": "clinical [2]; 500 mg", "value": 260, "unit": "ng·h/mL"},
      {"measurement": "Cmax", "setting": "clinical [2]; 500 mg", "value": 10.5, "unit": "ng/mL"},
      {"measurement": "Tmax", "setting": "clinical [2]; 500 mg", "value": 6, "unit": "h"},
      {"measurement": "half-life", "setting": "clinical [2]; 500 mg", "value": 18.3, "unit": "h"},
      {"measurement": "AUC(0-inf)", "setting": "clinical [2]; 1000 mg", "value": 702, "unit": "ng·h/mL"},
      {"measurement": "AUC(0-t)", "setting": "clinical [2]; 1000 mg", "value": 664, "unit": "ng·h/mL"},
      {"measurement": "Cmax", "setting": "clinical [2]; 1000 mg", "value": 21.5, "unit": "ng/mL"},
      {"measurement": "Tmax", "setting": "clinical [2]; 1000 mg", "value": 10, "unit": "h"},
      {"measurement": "half-life", "setting": "clinical [2]; 1000 mg", "value": 21.1, "unit": "h"},
      {"measurement": "AUC(0-inf)", "setting": "clinical [2]; 2000 mg", "value": 2080, "unit": "ng·h/mL"},
      {"measurement": "AUC(0-t)", "setting": "clinical [2]; 2000 mg", "value": 1860, "unit": "ng·h/mL"},
      {"measurement": "Cmax", "setting": "clinical [2]; 2000 mg", "value": 66.6, "unit": "ng/mL"},
      {"measurement": "Tmax", "setting": "clinical [2]; 2000 mg", "value": 8, "unit": "h"},
      {"measurement": "half-life", "setting": "clinical [2]; 2000 mg", "value": 16.3, "unit": "h"},
      {"measurement": "AUC(0-inf)", "setting": "clinical [2]; 4000 mg", "value": 2570, "unit": "ng·h/mL"},
      {"measurement": "AUC(0-t)", "setting": "clinical [2]; 4000 mg", "value": 2480, "unit": "ng·h/mL"},
      {"measurement": "Cmax", "setting": "clinical [2]; 4000 mg", "value": 86.7, "unit": "ng/mL"},
      {"measurement": "Tmax", "setting": "clinical [2]; 4000 mg", "value": 12, "unit": "h"},
      {"measurement": "half-life", "setting": "clinical [2]; 4000 mg", "value": 14.8, "unit": "h"},
      {"measurement": "AUC(0-t)", "setting": "clinical [3]; 250 mg, 250 mg BID oral, day 1, 0 to last measurable concentration, cohort n = 8", "value": 41.2, "unit": "ng·h/mL"},
      {"measurement": "AUC(0-t)", "setting": "clinical [3]; 250 mg, 250 mg BID oral, day 14, 0 to last measurable concentration", "value": 274, "unit": "ng·h/mL"},
      {"measurement": "Cmax", "setting": "clinical [3]; [7]", "value": 6.8, "unit": "ng/mL"},
      {"measurement": "Cmax", "setting": "clinical [3]; 250 mg, 250 mg BID oral, day 14, LC/MS/MS", "value": 25.5, "unit": "ng/mL"},
      {"measurement": "Tmax", "setting": "clinical [3]; [7]", "value": 9, "unit": "h"},
      {"measurement": "Tmax", "setting": "clinical [3]; 250 mg, 250 mg BID oral, day 14 morning dose, LC/MS/MS", "value": 4.5, "unit": "h"},
      {"measurement": "AUC(0-t)", "setting": "clinical [3]; 500 mg, 500 mg BID oral, day 1, 0 to last measurable concentration, cohort n = 8", "value": 49.4, "unit": "ng·h/mL"},
      {"measurement": "AUC(0-t)", "setting": "clinical [3]; 500 mg, 500 mg BID oral, day 14, 0 to last measurable concentration", "value": 313, "unit": "ng·h/mL"},
      {"measurement": "Cmax", "setting": "clinical [3]; 500 mg, 500 mg BID oral, day 1, LC/MS/MS, cohort n = 8", "value": 11, "unit": "ng/mL"},
      {"measurement": "Cmax", "setting": "clinical [3]; 500 mg, 500 mg BID oral, day 14, LC/MS/MS", "value": 37.6, "unit": "ng/mL"},
      {"measurement": "AUC(0-t)", "setting": "clinical [3]; 1000 mg, 1000 mg BID oral, day 1, 0 to last measurable concentration, cohort n = 8", "value": 118, "unit": "ng·h/mL"},
      {"measurement": "AUC(0-t)", "setting": "clinical [3]; 1000 mg, 1000 mg BID oral, day 14, 0 to last measurable concentration", "value": 771, "unit": "ng·h/mL"},
      {"measurement": "Cmax", "setting": "clinical [3]; [8]", "value": 21, "unit": "ng/mL"},
      {"measurement": "Cmax", "setting": "clinical [3]; 1000 mg, 1000 mg BID oral, day 14, LC/MS/MS", "value": 93.5, "unit": "ng/mL"},
      {"measurement": "Tmax", "setting": "clinical [3]; [8]", "value": 7.5, "unit": "h"},
      {"measurement": "Tmax", "setting": "clinical [3]; 1000 mg, 1000 mg BID oral, day 14 morning dose, LC/MS/MS", "value": 1.8, "unit": "h"},
      {"measurement": "bioavailability after oral administration", "setting": "[4]", "value": "very low"},
      {"measurement": "intestinal absorption", "setting": "[4]", "value": "< 1", "unit": "%"},
      {"measurement": "intestinal absorption", "setting": "[5]", "value": "< 1", "unit": "%"}
    ]}
  ]
}
